The assay has as its system H9c2 cells. The assay can be described thus: Cellular GSH level in H9c2 cells with or without menadione challenge. In kind it is cell-based, rat. Here is the method: H9c2 cells, a permanent cell line derived from cardiac myoblasts of rat embryo, have early been characterized as a suitable model of myocardial cells [Hescheler et al. 1991]. H9c2 cells were cultured as monolayers in Dulbecco's modified Eagle's medium (GIBCO BRL) supplemented with 10% (v/v) fetal bovine serum. The medium contained glucose (4.5 g/L) and glutamine (4.5 mM), supplemented with NaHCO3 (17 mM), penicillin (100 IU/ml), and streptomycin (100 μg/ml). Cells were grown under an atmosphere of 5% CO2 in air at 37° C. The medium was replaced by fresh medium every 2 or 3 days. A stock of cells was grown in a 75 cm culture flask and split before confluence at a subcultivation ratio of 1:10. Cells used for experiments were seeded at a density of 3.75×10^4 cells/well on a 12-well culture plate, and the cells were grown for 24 h to about 80% confluence prior to drug treatment.
Cultured H9c2 cells were treated with (−) Schisandrin B, (+) Schisandrin B or (±) Schisandrin B (dissolved in DMSO) at 6.25 μM (0.2% DMSO final concentration) for 16 h. Control cells were given the vehicle (i.e. DMSO) only. Immediately following the drug or vehicle pretreatment, the cells were challenged with menadione (dissolved in ethanol) at 12.5 μM (0.2% ethanol final concentration) for 4 h. The control cells were treated with the medium containing 0.2% ethanol only. After the menadione challenge, the medium was taken for the measurement of LDH activity, an biochemical index of cell injury.
The cells were washed twice with 0.5 ml cold phosphate-buffered saline (PBS), An aliquot (200 μl) of 3% sulfonsalicyclic acid was then added, and the mixture was incubate at 4° C. for 10 min. After centrifuging at 300 g for 15 min at 4° C., the supernatant was used for GSH measurement by an enzymatic method of Griffith (1980).

The mark [1] stands for this setting: MENADIONE 12.5 μM for 4 h, drug 6.25 μM for 16 h.
Setting [2] is: NON-MENADIONE, 6.25 μM for 16 h.

As for `COc1cc2c(c(OC)c1OC)-c1c(cc3c(c1OC)OCO3)CC(C)C(C)C2` (single isomer, unassigned; (-)) [(−) Sch B, (−) Schisandrin B], under setting [1], the “GSH Level” value came to 33.3 ± 1.75 nmol/mg protein and the “GSH Level, percent increase vs menadione control” value was “(81%)”. Also, under setting [2], the “GSH Level” value came to 64.0 ± 2.96 nmol/mg protein and the “GSH Level, percent increase vs non-menadione control” value is given as “(84%)”.

The values are drawn from patent publication US7531195B2, “Schisandrin B preparation” (priority 2005, dated 2009).
